Measurements taken from PMC11190158, “Study on the design, synthesis, and activity of anti-tumor staple peptides targeting MDM2/MDMX” (Frontiers in Chemistry, 2024).
Positions of bridges follow the written chain, without caps; N, C: chain ends. Non-standard residues stand in square brackets, D forms with d. Residues, ends and D or L forms follow the SMILES beside them. R8 = C=CCCCCCC[C@@](C)(N)C(=O)O; S5 = C=CCCC[C@](C)(N)C(=O)O

Assays:
HCT116 p53^−/− = settings: 72 h
circular dichroism = settings: phosphate buffer (PB); pH 7.2; ns °C; 10-50 (printed mmol/L, probably uM)
U251 = settings: for IC50: 72 h; for concentration at which in vitro anti-tumor activity was exhibited: U251 tumor cells, CCK-8
HCT116 p53^+/+ = settings: 72 h
U87 MG = settings: for IC50: 72 h; for concentration at which in vitro anti-tumor activity was exhibited: U87 MG tumor cells, CCK-8
[1] = Circular dichroism, degree of helicity; assay type: physicochemical; settings: CD, PB pH 7.2, 10–50 mmol/L peptide, ambient temperature, 1-mm path length, 185–255 nm
Experimental: The staple peptides were soluble in PB with a pH of 7.2 at a concentration of 10–50 mmol/L. CD experiments were performed using a Jasco J-715 Spectropolarimeter at ambient temperature. A quartz cuvette with a 1-mm path length was used for the spectrum collection (wavelength, 185–255 nm; step resolution, 0.0001 mm; speed, 1.2 μm/h; accumulations, 6; and bandwidth, 0.0001 mm). We calculated the helicity of each peptide using Eq.

tumor cells = assay: Cytotoxicity / cell viability assay (CCK-8), cell line not given; assay type: cell-based, human; settings: for concentration at which in vitro anti-tumor activity was exhibited: compared to linear peptide M3-1, cell line not named
Experimental: Human colon cancer cell lines HCT116 p53^+/+, HCT116 p53^−/−, U87 MG, and U251 were maintained in McCoy’s 5A Medium supplemented with 10% heat-inactivated FCS and 1% penicillin–streptomycin at 37°C, 5% CO2, and under complete humidification conditions. The cells (3×10^3 cells/well) were inoculated in 96-well plates and treated with different concentrations of polypeptides for 72 h. The absorbance at 450 nm was then measured using the CCK-8 Kit, and the percentage of cell survival was calculated based on the ratio of the sample well to the reference well A450.

Compound: CSCC[C@@H]1NC(=O)[C@H](CC(C)C)NC(=O)[C@H](CCC(N)=O)NC(=O)[C@@](C)(NC(=O)[C@H](Cc2c[nH]c3ccccc23)NC(=O)[C@H](Cc2ccc(O)cc2)NC(=O)[C@H](CCC(=O)O)NC(=O)[C@H](CC(C)C)NC(=O)[C@H](Cc2ccccc2)NC(=O)[C@@H](NC(=O)[C@H](CC(C)C)NC(=O)[C@H](CCCCN)NC(C)=O)[C@@H](C)O)CCCC=CCCC[C@@](C)(C(=O)N[C@@H](CCCCN)C(N)=O)NC1=O [SM3-5] (Ac-KLTFLEYW[S5]QLM[S5]K-NH2; staple 9-13)
- IC50 (HCT116 p53^−/−): 27.4 µM
- helicity (circular dichroism): 42.9%
- IC50 (U251): 35.9 µM
- concentration at which in vitro anti-tumor activity was exhibited (U251): 50 µM
- IC50 (HCT116 p53^+/+): 27.3 µM
- IC50 (U87 MG): 31.2 µM
- concentration at which in vitro anti-tumor activity was exhibited (U87 MG): 25 µM
- helicity [1]: 42.85%
- anti-proliferative / tumor suppressive activity (in words) (tumor cells; HCT116 p53^+/+, HCT116 p53−/−, U87 and U251 cell viability experiments, versus template straight-chain peptide): significantly improved
- concentration at which in vitro anti-tumor activity was exhibited (tumor cells): 25 µM

Compound: Ac-KLTFLEYWAQLMQK-NH2
- helicity (circular dichroism): 0.54%

Compound: CSCC[C@H](NC(=O)[C@H](CC(C)C)NC(=O)[C@H](CCC(N)=O)NC(=O)[C@H](C)NC(=O)[C@H](Cc1c[nH]c2ccccc12)NC(=O)[C@H](Cc1ccc(O)cc1)NC(=O)[C@]1(C)CCCC=CCCC[C@](C)(NC(=O)[C@H](CCCCN)NC(C)=O)C(=O)N[C@@H]([C@@H](C)O)C(=O)N[C@@H](Cc2ccccc2)C(=O)N[C@@H](CC(C)C)C(=O)N1)C(=O)N[C@@H](CCC(N)=O)C(=O)N[C@@H](CCCCN)C(N)=O [SM3-1] (Ac-K[S5]TFL[S5]YWAQLMQK-NH2; staple 2-6)
- IC50 (HCT116 p53^−/−): 54.8 µM
- helicity (circular dichroism): 42.4%
- IC50 (U251): 22.6 µM
- concentration at which in vitro anti-tumor activity was exhibited (U251): 50 µM
- IC50 (HCT116 p53^+/+): 118 µM
- IC50 (U87 MG): 19 µM
- concentration at which in vitro anti-tumor activity was exhibited (U87 MG): 25 µM
- helicity [1]: 42.36%
- concentration at which in vitro anti-tumor activity was exhibited (tumor cells): 25 µM

Compound: CSCC[C@H](NC(=O)[C@H](CC(C)C)NC(=O)[C@H](CCC(N)=O)NC(=O)[C@]1(C)CCCC=CCCC[C@](C)(NC(=O)[C@H](Cc2ccccc2)NC(=O)[C@@H](NC(=O)[C@H](CC(C)C)NC(=O)[C@H](CCCCN)NC(C)=O)[C@@H](C)O)C(=O)N[C@@H](CCC(=O)O)C(=O)N[C@@H](Cc2ccc(O)cc2)C(=O)N[C@@H](Cc2c[nH]c3ccccc23)C(=O)N1)C(=O)N[C@@H](CCC(N)=O)C(=O)N[C@@H](CCCCN)C(N)=O [SM3-3] (Ac-KLTF[S5]EYW[S5]QLMQK-NH2; staple 5-9)
- IC50 (HCT116 p53^−/−): 25.8 µM
- helicity (circular dichroism): 38.1%
- IC50 (U251): 93 µM
- concentration at which in vitro anti-tumor activity was exhibited (U251): 100 µM
- IC50 (HCT116 p53^+/+): 15.6 µM
- IC50 (U87 MG): 47.5 µM
- concentration at which in vitro anti-tumor activity was exhibited (U87 MG): 50 µM
- helicity [1]: 38.10%
- concentration at which in vitro anti-tumor activity was exhibited (tumor cells): 25 µM

Compound: CC(=O)N[C@@H](CCCCN)C(=O)N[C@@H](CC(C)C)C(=O)N[C@H](C(=O)N[C@@H](Cc1ccccc1)C(=O)N[C@]1(C)CCCCCCC=CCCC[C@@](C)(C(=O)N[C@@H](CCC(N)=O)C(=O)N[C@@H](CCCCN)C(N)=O)NC(=O)[C@H](CC(C)C)NC(=O)[C@H](CCC(N)=O)NC(=O)[C@H](C)NC(=O)[C@H](Cc2c[nH]c3ccccc23)NC(=O)[C@H](Cc2ccc(O)cc2)NC(=O)[C@H](CCC(=O)O)NC1=O)[C@@H](C)O [SM3-8] (Ac-KLTF[R8]EYWAQL[S5]QK-NH2; staple 5-12)
- IC50 (HCT116 p53^−/−): 17.9 µM
- IC50 (U251): 94.2 µM
- concentration at which in vitro anti-tumor activity was exhibited (U251): 100 µM
- IC50 (HCT116 p53^+/+): 17.6 µM
- IC50 (U87 MG): 45 µM
- concentration at which in vitro anti-tumor activity was exhibited (U87 MG): 50 µM
- helicity [1]: 52.02%
- concentration at which in vitro anti-tumor activity was exhibited (tumor cells): 25 µM
